In publication PMC9005804, “GPR105-Targeted Therapy Promotes Gout Resolution as a Switch Between NETosis and Apoptosis of Neutrophils” (Frontiers in Immunology, 2022):

Target: T1, GPR105 (Homo sapiens, UniProt Q15391)
T1 construct: gene P2RY14
T1 sequence (Q15391 1-338): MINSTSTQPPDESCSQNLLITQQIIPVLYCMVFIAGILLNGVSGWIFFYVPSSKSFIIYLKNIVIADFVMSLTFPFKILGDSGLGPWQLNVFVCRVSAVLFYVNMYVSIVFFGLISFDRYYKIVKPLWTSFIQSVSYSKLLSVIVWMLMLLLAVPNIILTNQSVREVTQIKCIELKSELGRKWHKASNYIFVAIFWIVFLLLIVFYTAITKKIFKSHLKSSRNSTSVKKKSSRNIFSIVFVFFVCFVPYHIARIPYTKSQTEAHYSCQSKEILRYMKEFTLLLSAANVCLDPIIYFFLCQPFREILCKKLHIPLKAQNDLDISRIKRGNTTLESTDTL
Test: cAMP-Glo luminescence assay in HEK293-hGPR105 cells (forskolin plus UDPG stimulated), antagonism
Assay type: cell-based

With C/C=C/C#CC#C[C@@H](O)[C@@H](/C=C/CCCO)O[C@@H]1O[C@H](CO)[C@@H](O)[C@H](O)[C@H]1O [LBT, lobetyolin] the IC50 was 5.1 µM.
